Reference: ChEMBL document CHEMBL1129670, “Synthesis and structure-activity relationships of N-propyl-N-(4-pyridinyl)-1H-indol-1-amine (besipirdine) and related analogs as potential therapeutic agents for Alzheimer's disease” (J Med Chem, 1996)

Columns and labels:
[1] = molecular target: Sodium-dependent noradrenaline transporter (Homo sapiens, UniProt P23975)
Description: Inhibitory activity against norepinephrine (NE) uptake in rat whole brain synaptosome preparation

Mus musculus [2] = organism: Mus musculus; experiment: Antagonistic activity against Scopolamine induced behavioral deficits in mice; 0/3; assay type: functional
[3] = molecular target: Muscarinic acetylcholine receptor; assay type: cell membranes, Membrane
Description: Inhibition of [3H]quinuclidinyl benzilate (QNB) binding from rat forebrain membranes in the absence of Zn

Acetylcholinesterase = molecular target: T1, Acetylcholinesterase (Rattus norvegicus, UniProt P37136)
T1 sequence (P37136 whole entry): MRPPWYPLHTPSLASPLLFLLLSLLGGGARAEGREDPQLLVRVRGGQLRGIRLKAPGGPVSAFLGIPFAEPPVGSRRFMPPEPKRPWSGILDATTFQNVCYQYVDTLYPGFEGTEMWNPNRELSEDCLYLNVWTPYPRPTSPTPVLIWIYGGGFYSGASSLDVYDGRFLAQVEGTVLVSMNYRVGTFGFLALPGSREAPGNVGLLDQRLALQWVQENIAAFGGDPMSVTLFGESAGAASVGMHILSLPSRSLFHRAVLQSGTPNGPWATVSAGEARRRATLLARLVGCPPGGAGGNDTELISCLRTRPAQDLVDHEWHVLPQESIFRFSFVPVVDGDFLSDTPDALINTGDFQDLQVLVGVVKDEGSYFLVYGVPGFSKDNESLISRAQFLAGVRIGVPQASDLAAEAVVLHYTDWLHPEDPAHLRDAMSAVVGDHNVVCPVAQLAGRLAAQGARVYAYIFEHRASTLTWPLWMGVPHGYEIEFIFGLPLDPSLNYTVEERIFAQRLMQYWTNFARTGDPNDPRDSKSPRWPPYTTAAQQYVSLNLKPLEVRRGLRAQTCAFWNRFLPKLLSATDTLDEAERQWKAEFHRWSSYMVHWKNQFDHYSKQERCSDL
Description: Inhibitory activity against acetylcholinesterase in rat striatal preparation

[4] = molecular target: Muscarinic acetylcholine receptor; assay type: cell membranes, Membrane; remark: listed apart in the source
Description: Inhibition of [3H]quinuclidinyl benzilate (QNB) binding from rat forebrain membranes in the presence of Zn

Mus musculus [5] = organism: Mus musculus; experiment: animal or person
Description: Effective dose against administration in mice

Mus musculus [6] = experiment: Antagonistic activity against Scopolamine induced behavioral deficits in mice at dose […] sc; assay type: functional; details: route subcutaneous
Mus musculus [7] = experiment: Antagonistic activity against Scopolamine induced behavioral deficits in mice at dose 1.25 mg/kg sc; assay type: functional; details: route subcutaneous
[8] = molecular target: T2, Adrenergic receptor alpha-2 (Rattus norvegicus, UniProt P22086+P19328+P22909); experiment: Inhibitory activity against [3H]clonidine binding to Alpha-2 adrenergic receptor in rat cortex
T2 sequence (P22086 whole entry): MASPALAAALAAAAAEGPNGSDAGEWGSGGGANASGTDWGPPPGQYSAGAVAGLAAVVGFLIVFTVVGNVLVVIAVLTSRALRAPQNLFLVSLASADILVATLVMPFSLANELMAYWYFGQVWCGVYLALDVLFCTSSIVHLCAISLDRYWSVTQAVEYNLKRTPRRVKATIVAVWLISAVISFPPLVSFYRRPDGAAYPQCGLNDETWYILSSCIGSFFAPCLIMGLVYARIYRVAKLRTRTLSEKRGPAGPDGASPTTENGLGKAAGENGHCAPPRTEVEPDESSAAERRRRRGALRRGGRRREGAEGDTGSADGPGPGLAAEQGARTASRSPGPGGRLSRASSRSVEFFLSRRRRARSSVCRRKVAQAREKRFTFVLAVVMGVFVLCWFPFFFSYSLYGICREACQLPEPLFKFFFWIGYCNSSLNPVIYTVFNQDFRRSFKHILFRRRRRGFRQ
T2 sequence (P19328 whole entry): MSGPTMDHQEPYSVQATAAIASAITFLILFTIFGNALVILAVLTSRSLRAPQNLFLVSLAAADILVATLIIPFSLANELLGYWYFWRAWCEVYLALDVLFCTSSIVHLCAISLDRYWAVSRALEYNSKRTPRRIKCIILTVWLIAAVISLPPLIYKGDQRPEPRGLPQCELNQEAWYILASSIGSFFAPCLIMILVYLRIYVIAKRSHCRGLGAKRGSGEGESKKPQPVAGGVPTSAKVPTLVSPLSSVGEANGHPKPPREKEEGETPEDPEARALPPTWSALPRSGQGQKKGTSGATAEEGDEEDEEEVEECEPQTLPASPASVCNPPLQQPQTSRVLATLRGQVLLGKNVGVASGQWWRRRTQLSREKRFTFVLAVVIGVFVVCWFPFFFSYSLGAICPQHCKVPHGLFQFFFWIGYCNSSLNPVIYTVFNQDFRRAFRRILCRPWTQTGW
T2 sequence (P22909 whole entry): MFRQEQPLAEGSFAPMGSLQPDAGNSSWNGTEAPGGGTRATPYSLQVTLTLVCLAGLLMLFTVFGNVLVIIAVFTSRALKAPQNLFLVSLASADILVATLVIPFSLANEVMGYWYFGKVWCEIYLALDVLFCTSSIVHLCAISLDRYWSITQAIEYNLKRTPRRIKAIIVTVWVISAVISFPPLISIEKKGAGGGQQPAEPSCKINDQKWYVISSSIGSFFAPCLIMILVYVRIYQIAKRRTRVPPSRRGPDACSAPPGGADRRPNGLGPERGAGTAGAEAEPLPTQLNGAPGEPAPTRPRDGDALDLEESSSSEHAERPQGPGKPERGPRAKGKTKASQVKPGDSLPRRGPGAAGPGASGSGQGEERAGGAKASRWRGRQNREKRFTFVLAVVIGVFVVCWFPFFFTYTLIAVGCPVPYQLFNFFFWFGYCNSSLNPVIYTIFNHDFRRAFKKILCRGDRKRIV

Mus musculus [9] = organism: Mus musculus; details: dose 2.5 mg/kg; route subcutaneous
Description: Antagonistic activity against Scopolamine induced behavioral deficits in mice at dose 2.5 mg/kg sc

Mus musculus [10] = organism: Mus musculus; experiment: Antagonistic activity against Scopolamine induced behavioral deficits in mice; 5/6; assay type: functional
Mus musculus [11] = experiment: Antagonistic activity against Scopolamine induced behavioral deficits in mice at dose 0.16 mg/kg sc; assay type: functional; details: route subcutaneous
Mus musculus [12] = organism: Mus musculus; details: dose 5 mg/kg; route subcutaneous
Mus musculus [13] = organism: Mus musculus; experiment: Antagonistic activity against Scopolamine induced behavioral deficits in mice; 1/6; assay type: functional
Mus musculus [14] = organism: Mus musculus; details: dose 0.63 mg/kg; route subcutaneous
[15] = molecular target: T3, Adrenergic receptor alpha-1 (Rattus norvegicus, UniProt P15823+P23944+P43140); experiment: Inhibitory activity against [3H]WB-4101 binding to Alpha-1 adrenergic receptor in rat whole brain membrane; assay type: cell membranes
T3 sequence (P15823 whole entry): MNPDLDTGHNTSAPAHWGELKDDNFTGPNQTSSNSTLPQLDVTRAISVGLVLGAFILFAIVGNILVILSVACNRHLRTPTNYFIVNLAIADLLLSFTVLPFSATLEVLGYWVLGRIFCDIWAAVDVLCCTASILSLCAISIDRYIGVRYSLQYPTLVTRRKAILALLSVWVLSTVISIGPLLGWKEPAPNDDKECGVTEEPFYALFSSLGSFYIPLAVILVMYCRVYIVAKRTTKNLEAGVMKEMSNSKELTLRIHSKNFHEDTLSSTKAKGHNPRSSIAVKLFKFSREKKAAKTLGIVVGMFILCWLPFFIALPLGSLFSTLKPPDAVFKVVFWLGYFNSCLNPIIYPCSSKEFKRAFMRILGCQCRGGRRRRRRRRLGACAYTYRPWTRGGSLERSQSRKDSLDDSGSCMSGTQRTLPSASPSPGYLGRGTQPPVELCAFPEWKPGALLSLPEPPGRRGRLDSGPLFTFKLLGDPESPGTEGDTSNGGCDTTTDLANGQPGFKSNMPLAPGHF
T3 sequence (P23944 whole entry): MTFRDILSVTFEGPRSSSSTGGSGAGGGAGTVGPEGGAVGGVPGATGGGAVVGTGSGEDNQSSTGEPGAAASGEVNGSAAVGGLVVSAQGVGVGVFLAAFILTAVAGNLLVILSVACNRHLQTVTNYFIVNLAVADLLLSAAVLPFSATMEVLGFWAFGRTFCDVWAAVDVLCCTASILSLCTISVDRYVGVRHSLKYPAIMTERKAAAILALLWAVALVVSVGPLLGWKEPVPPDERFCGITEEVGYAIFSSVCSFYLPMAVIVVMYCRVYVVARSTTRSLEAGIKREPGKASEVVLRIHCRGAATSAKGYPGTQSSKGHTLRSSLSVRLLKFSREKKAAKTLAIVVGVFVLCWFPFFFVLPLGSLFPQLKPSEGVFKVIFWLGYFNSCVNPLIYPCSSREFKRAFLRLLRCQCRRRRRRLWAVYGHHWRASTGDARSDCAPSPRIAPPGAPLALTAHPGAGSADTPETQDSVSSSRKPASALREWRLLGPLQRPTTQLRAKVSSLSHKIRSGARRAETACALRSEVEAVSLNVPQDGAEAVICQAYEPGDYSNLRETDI
T3 sequence (P43140 whole entry): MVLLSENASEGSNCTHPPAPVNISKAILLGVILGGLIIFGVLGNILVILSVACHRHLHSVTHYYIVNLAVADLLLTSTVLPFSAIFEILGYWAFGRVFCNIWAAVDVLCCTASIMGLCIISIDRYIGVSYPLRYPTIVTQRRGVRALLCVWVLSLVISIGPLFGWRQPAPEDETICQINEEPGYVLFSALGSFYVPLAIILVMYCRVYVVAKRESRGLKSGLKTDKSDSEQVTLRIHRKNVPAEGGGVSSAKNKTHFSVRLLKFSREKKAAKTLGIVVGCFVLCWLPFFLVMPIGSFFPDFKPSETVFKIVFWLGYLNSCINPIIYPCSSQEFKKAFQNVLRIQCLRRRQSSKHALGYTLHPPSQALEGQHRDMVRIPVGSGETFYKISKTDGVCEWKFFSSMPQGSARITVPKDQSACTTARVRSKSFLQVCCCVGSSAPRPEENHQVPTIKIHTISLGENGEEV

Mus musculus [16] = experiment: Antagonistic activity against Scopolamine induced behavioral deficits in mice at dose 0.02 mg/kg sc; assay type: functional; details: route subcutaneous
Mus musculus [17] = organism: Mus musculus; experiment: Antagonistic activity against Scopolamine induced behavioral deficits in mice; 3/9; assay type: functional
Mus musculus [18] = experiment: Antagonistic activity against Scopolamine induced behavioral deficits in mice at dose 5.0 mg/kg sc; assay type: functional; details: route subcutaneous
Mus musculus [19] = organism: Mus musculus; experiment: Antagonistic activity against Scopolamine induced behavioral deficits in mice; 4/6; assay type: functional
Mus musculus [20] = experiment: Antagonistic activity against Scopolamine induced behavioral deficits in mice at dose 0.63 mg/kg sc; assay type: functional; details: route subcutaneous
Mus musculus [21] = experiment: Antagonistic activity against Scopolamine induced behavioral deficits in mice at dose 5.0 mg/kg sc; 2/6; assay type: functional

Sodium-dependent noradrenaline transporter, sequence (P23975 whole entry): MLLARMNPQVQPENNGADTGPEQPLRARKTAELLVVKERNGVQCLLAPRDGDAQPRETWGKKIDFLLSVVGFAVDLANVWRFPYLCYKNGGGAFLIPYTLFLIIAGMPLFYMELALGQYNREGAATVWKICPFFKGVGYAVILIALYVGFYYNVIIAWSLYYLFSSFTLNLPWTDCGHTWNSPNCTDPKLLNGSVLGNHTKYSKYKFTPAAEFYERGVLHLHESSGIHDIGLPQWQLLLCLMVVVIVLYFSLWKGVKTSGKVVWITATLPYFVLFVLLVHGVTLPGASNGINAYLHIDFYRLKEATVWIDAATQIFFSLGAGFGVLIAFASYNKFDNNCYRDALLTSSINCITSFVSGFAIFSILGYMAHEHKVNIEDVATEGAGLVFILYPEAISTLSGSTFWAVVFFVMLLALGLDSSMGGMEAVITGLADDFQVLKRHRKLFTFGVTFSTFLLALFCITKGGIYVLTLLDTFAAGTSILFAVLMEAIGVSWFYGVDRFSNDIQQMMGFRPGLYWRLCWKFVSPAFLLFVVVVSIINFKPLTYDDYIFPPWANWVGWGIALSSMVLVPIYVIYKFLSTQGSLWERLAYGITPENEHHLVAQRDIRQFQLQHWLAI

| SMILES | IC50 [1] | IC50 [3] | IC50 (Acetylcholinesterase) | IC50 [4] | ED50 (Mus musculus [5]) | Response (Mus musculus [6]) | Response (Mus musculus [7]) | Response (Mus musculus [11]) | Response (Mus musculus [12]) | Antagonism (Mus musculus [13]) | Response (Mus musculus [14]) | Response (Mus musculus [18]) | also measured |
| --- | --- | --- | --- | --- | --- | --- | --- | --- | --- | --- | --- | --- | --- |
| Cc1cc2ccccc2n1Nc1ccncc1 | 3600 nM | 60 µM | > 100 µM | 29 µM | < 10 mg/kg |  |  |  |  |  |  |  | Antagonism (Mus musculus [2]): 0 |
| CC(C)N(c1ccncc1)n1ccc2ccccc21 | 2300 nM | 6 µM | > 100 µM | 0.63 µM | 2.9 mg/kg | 60% | 36% | 33% | 20% |  |  |  | IC50 [8]: > 10 µM; Response (Mus musculus [9]): 20%; Antagonism (Mus musculus [10]): 5 |
| CCN(c1ccncc1)n1ccc2ccccc21 | 250 nM | 10 µM | > 100 µM | 2.4 µM | 3.3 mg/kg |  |  |  |  | 1 | 33% |  | IC50 [8]: 0.11 µM; IC50 [15]: 3.3 µM |
| CCCN(c1ccncc1)n1c(C)cc2ccccc21 | 1100 nM | 7.2 µM | > 100 µM | 1.4 µM | 3.2 mg/kg |  |  |  | 23% |  |  |  | Response (Mus musculus [16]): 20%; Antagonism (Mus musculus [17]): 3; IC50 [8]: 2.3 µM; Response (Mus musculus [9]): 20% |
| CCCN(c1ccncc1)n1ccc2cc(OC)ccc21 | 570 nM | 14 µM | > 100 µM | 4.8 µM | > 20 mg/kg | 20% |  | 20% |  |  |  | 36% | Antagonism (Mus musculus [19]): 4; Response (Mus musculus [20]): 26% |
| CCCN(c1ccncc1)n1ccc2cc(Cl)ccc21 | 1900 nM | 5.8 µM | > 100 µM | 2.4 µM | > 20 mg/kg |  | 20% |  |  | 1 |  |  |  |
| CN(c1ccncc1)n1ccc2cc([N+](=O)[O-])ccc21 | > 30000 nM | 29 µM | > 100 µM | 7.6 µM | > 20 mg/kg |  | 20% | 20% |  |  | 20% | 20% | Antagonism (Mus musculus [19]): 4 |
| CCCN(c1ccncn1)n1ccc2ccccc21 | 1400 nM | 391 µM | > 100 µM | 11 µM | > 20 mg/kg |  |  |  |  | 1 |  | 23% |  |
| CCCN(c1ccncc1)n1cc(C#N)c2ccccc21 | 750 nM | 8.6 µM |  | 3.5 µM | 9.2 mg/kg | 53% | 29% | 40% |  |  |  | 27% | Antagonism (Mus musculus [10]): 5; Response (Mus musculus [20]): 36% |
| CCCN(c1ccncc1)n1ccc2cc(Br)ccc21 | 2600 nM | 4.4 µM | > 100 µM | 1.6 µM | > 20 mg/kg |  |  |  | 33% |  | 33% |  | Antagonism (Mus musculus [21]): 2 |
| Cc1cn(Nc2ccncc2)c2ccccc12 | 12800 nM | 82 µM | > 100 µM | 35 µM | 1 mg/kg | 33% |  |  |  | 1 |  |  |  |
| Clc1ccc2c(ccn2Nc2ccncc2)c1 | > 20000 nM | 42 µM | > 100 µM | 5.9 µM | > 20 mg/kg |  |  |  |  |  |  |  | Antagonism (Mus musculus [2]): 0 |
| c1ccc2c(c1)OCC(C1=NCCN1)O2 (centres undefined) [IDAZOXAN] | > 20000 nM |  |  |  |  | 60% | 47% |  | 33% |  | 43% |  | Response (Mus musculus [9]): 53%; Antagonism (Mus musculus [10]): 5 |
